Assay results reported in patent publication US10478451B2, “Use of dextran sulfate” (TX Medic AB, priority 2015, dated 2019).
Entries after “also recorded” stand apart in the source; their conditions may differ.

What was measured:
[1] = test system: myocardial infarction induced interstitial fibrosis; assay: Anti-fibrosis effect in a rat model of myocardial infarction (interstitial fibrosis, Masson's Trichrome staining); type: in vivo
Description: The present study assessed the effect of dextran sulfate in inhibiting or reducing fibrosis in a rat model of myocardial infarction (MI).
The myocardial infarction model in rat involved ligations of the left coronary artery permanently with an intramural stitch. The surgery caused obstruction of the blood flow and subsequently to severe ischemic damage and cardiac walls infarct.
In total 120 female SD rats having an average body weight of 178 g at study initiation (Day 0) were obtained from Harlan Laboratories, Israel. Animals were fed ad libitum a commercial rodent diet (Teklad Certified Global 18% Protein Diet). Animals had free access to autoclaved and acidified drinking water (pH between 2.5 and 3.5) obtained from the municipality supply. Animals were housed under standard laboratory conditions, air conditioned and filtered (HEPA F6/6) with adequate fresh air supply (minimum air changes/hour). Animals were kept in a climate controlled environment with a temperatures range of 20-24° C. and RH range of 30-70% with 12 hours light and 12 hours dark cycle.
Dextran sulfate with an average molecular weight within a range of 5-7 kDa was dissolved in 0.9% NaCl (saline) (Teva Pharmaceutical Industries Ltd) to be injected subcutaneous at doses of 15 mg/kg or 3 mg/kg. […]
Masson's Trichrome Staining was used for fibrosis evaluation. […] The sections were visualized in a computer-imaging system and infarct size was marked and calculated using the ImageJ program. For each animal, five serial sections including one containing the ligature were analyzed and the mean value of all sections for each heart was treated as one value for statistical analysis. […]
Interstitial fibrosis in the marginal area of the infarct was estimated manually in heart sections stained with Masson's Trichrome Staining. The area of interstitial fibrosis was calculated as the percent of the total area of the left ventricle. For each rat five cross-sections were analyzed.

[2] = orally delivered; mice, rats, hamsters and guinea pigs; cited from earlier work

For Dextran sulfate, the “interstitial fibrosis compared to vehicle control group 1M (in words)” value ([1]; group 2M: 15 mg/kg s.c., 3 times a week for 3 weeks, P<0.01, five weeks post-infarction) was “significant suppression of myocardial infarction induced interstitial fibrosis; also recorded: significantly decreased fibrosis”, the “extent of interstitial fibrosis (area of interstitial fibrosis as percent of the total area of the left ventricle)” value ([1]; group 2M: 15 mg/kg s.c., 3 times a week for 3 weeks, female SD rats, margin zone of infarct, day 36 after MI, vehicle group 1M 22.7±1.9%) was 11.9±0.9% and the “extent of interstitial fibrosis compared to vehicle control group 1M (in words)” value ([1]; groups 3M-5M: 15 mg/kg s.c. 3 times a week for 1 week, 15 mg/kg single dose, 3 mg/kg 3 times a week for 1 week, day 36 after MI) was “also lower in the other dextran sulfate treated groups 3M-5M, although the difference was not significant”. The “induction of colitis and intestinal fibrosis” value [2] was “known to induce colitis and intestinal fibrosis”.
